Measured values: ChEMBL document CHEMBL4138123, “Design, synthesis and biological evaluation of novel pyrazolochalcones as potential modulators of PI3K/Akt/mTOR pathway and inducers of apoptosis in breast cancer cells” (Eur J Med Chem, 2017)

How the values were obtained:
Assay type in all cases: functional
NCI-H226 [1] = assay: Cytotoxicity against human NCI-H226 cells assessed as cell growth at 1 uM after 48 hrs by sulforhodamine B assay relative to control; details: NCI-H226, 48 h, read-out: Activity
HL-60(TB) [2] = assay: Cytotoxicity against human HL-60(TB) cells assessed as cell growth at 1 uM after 48 hrs by sulforhodamine B assay relative to control; details: HL-60, 48 h, read-out: Activity
BT-549 = assay: Cytotoxicity against human BT549 cells assessed as cell growth at 1 uM after 48 hrs by sulforhodamine B assay relative to control; details: BT-549, 48 h, read-out: Activity
SNB-19 = assay: Cytotoxicity against human SNB19 cells assessed as growth inhibition after 48 hrs by sulforhodamine B assay; details: SNB-19, 48 h; for CC50: read-out: LC50 (the source's name)
KM12 = assay: Cytotoxicity against human KM12 cells assessed as cell growth at 10 uM after 48 hrs by sulforhodamine B assay relative to control; details: KM12, 48 h, read-out: Activity
HCT-116 [3] = assay: Cytotoxicity against human HCT116 cells assessed as cell growth at 0.01 uM after 48 hrs by sulforhodamine B assay relative to control; details: HCT-116, 48 h, read-out: Activity
K562 = assay: Cytotoxicity against human K562 cells assessed as cell growth at 1 uM after 48 hrs by sulforhodamine B assay relative to control; details: K562, 48 h, read-out: Activity
NCI-H226 [4] = assay: Cytotoxicity against human NCI-H226 cells assessed as cell growth at 0.1 uM after 48 hrs by sulforhodamine B assay relative to control; details: NCI-H226, 48 h, read-out: Activity
A549 = assay: Cytotoxicity against human A549/ATCC cells assessed as cell growth at 100 uM after 48 hrs by sulforhodamine B assay relative to control; details: A549, 48 h, read-out: Activity
HL-60(TB) [5] = assay: Cytotoxicity against human HL-60(TB) cells assessed as growth inhibition after 48 hrs by sulforhodamine B assay; details: HL-60, 48 h
SW-620 [6] = assay: Cytotoxicity against human SW620 cells assessed as cell growth at 0.01 uM after 48 hrs by sulforhodamine B assay relative to control; details: SW-620, 48 h, read-out: Activity
PC-3 [7] = assay: Cytotoxicity against human PC3 cells assessed as cell growth at 100 uM after 48 hrs by sulforhodamine B assay relative to control; details: PC-3, 48 h, read-out: Activity
OVCAR-8 [8] = assay: Cytotoxicity against human OVCAR8 cells assessed as cell growth at 0.1 uM after 48 hrs by sulforhodamine B assay relative to control; details: OVCAR-8, 48 h, read-out: Activity
IGROV-1 = assay: Cytotoxicity against human IGROV1 cells assessed as cell growth at 10 uM after 48 hrs by sulforhodamine B assay relative to control; details: IGROV-1, 48 h, read-out: Activity
ACHN = assay: Cytotoxicity against human ACHN cells assessed as cell growth at 0.1 uM after 48 hrs by sulforhodamine B assay relative to control; details: read-out: Activity
COLO 205 = assay: Cytotoxicity against human COLO205 cells assessed as cell growth at 100 uM after 48 hrs by sulforhodamine B assay relative to control; details: COLO 205, 48 h, read-out: Activity
SF-539 = assay: Cytotoxicity against human SF539 cells assessed as cell growth at 1 uM after 48 hrs by sulforhodamine B assay relative to control; details: SF-539, 48 h, read-out: Activity
SW-620 [9] = assay: Cytotoxicity against human SW620 cells assessed as cell growth at 0.1 uM after 48 hrs by sulforhodamine B assay relative to control; details: SW-620, 48 h, read-out: Activity
MCF7 = assay: Cytotoxicity against human MCF7 cells assessed as cell growth at 0.1 uM after 48 hrs by sulforhodamine B assay relative to control; details: MCF7, 48 h, read-out: Activity
UACC-257 = assay: Cytotoxicity against human UACC257 cells assessed as cell growth at 0.01 uM after 48 hrs by sulforhodamine B assay relative to control; details: UACC-257, 48 h, read-out: Activity
NCI-H23 = assay: Cytotoxicity against human NCI-H23 cells assessed as cell growth at 0.1 uM after 48 hrs by sulforhodamine B assay relative to control; details: NCI-H23, 48 h, read-out: Activity
DU-145 = assay: Cytotoxicity against human DU145 cells assessed as cell growth at 100 uM after 48 hrs by sulforhodamine B assay relative to control; details: DU-145, 48 h, read-out: Activity
T47D = assay: Cytotoxicity against human T47D cells assessed as cell growth at 10 uM after 48 hrs by sulforhodamine B assay relative to control; details: read-out: Activity
PC-3 [10] = assay: Cytotoxicity against human PC3 cells assessed as cell growth at 0.1 uM after 48 hrs by sulforhodamine B assay relative to control; details: PC-3, 48 h, read-out: Activity
UO-31 [11] = assay: Cytotoxicity against human UO31 cells assessed as cell growth at 10 uM after 48 hrs by sulforhodamine B assay relative to control; details: UO-31, 48 h, read-out: Activity
SK-OV-3 = assay: Cytotoxicity against human SKOV3 cells assessed as growth inhibition after 48 hrs by sulforhodamine B assay; details: SK-OV-3, 48 h
NCI-H460 [12] = assay: Cytotoxicity against human NCI-H460 cells assessed as cell growth at 0.1 uM after 48 hrs by sulforhodamine B assay relative to control; details: NCI-H460, 48 h, read-out: Activity
A498 = assay: Cytotoxicity against human A498 cells assessed as cell growth at 100 uM after 48 hrs by sulforhodamine B assay relative to control; details: A498, 48 h, read-out: Activity
NCI-H522 = assay: Cytotoxicity against human NCI-H522 cells assessed as cell growth at 0.1 uM after 48 hrs by sulforhodamine B assay relative to control; details: NCI-H522, 48 h, read-out: Activity
OVCAR-8 [13] = assay: Cytotoxicity against human OVCAR8 cells assessed as cell growth at 100 uM after 48 hrs by sulforhodamine B assay relative to control; details: OVCAR-8, 48 h, read-out: Activity
NCI-H460 [14] = assay: Cytotoxicity against human NCI-H460 cells assessed as cell growth at 1 uM after 48 hrs by sulforhodamine B assay relative to control; details: NCI-H460, 48 h, read-out: Activity
SK-MEL-5 = assay: Cytotoxicity against human SK-MEL-5 cells assessed as cell growth at 0.1 uM after 48 hrs by sulforhodamine B assay relative to control; details: SK-MEL-5, 48 h, read-out: Activity
UO-31 [15] = assay: Cytotoxicity against human UO31 cells assessed as growth inhibition after 48 hrs by sulforhodamine B assay; details: UO-31, 48 h
HCT-116 [16] = assay: Cytotoxicity against human HCT116 cells assessed as cell growth at 0.1 uM after 48 hrs by sulforhodamine B assay relative to control; details: HCT-116, 48 h, read-out: Activity
HCC 2998 = assay: Cytotoxicity against human HCC2998 cells assessed as growth inhibition after 48 hrs by sulforhodamine B assay; details: HCC 2998, 48 h

COc1ccc(C(=O)/C=C/c2cc(-c3ccc(OC)c(OC)c3)n[nH]2)cc1OC
growth at 1 µM (NCI-H226 [1]): 77% | growth at 1 µM (HL-60(TB) [2]): 86% | growth at 1 µM (BT-549): 75% | GI50 (SNB-19): 1.67 µM | TGI (SNB-19): 4.16 µM | CC50 (SNB-19): > 100 µM | growth at 10 µM (KM12): -80% | growth at 0.01 µM (HCT-116 [3]): 94% | growth at 1 µM (K562): 38% | growth at 0.1 µM (NCI-H226 [4]): 88% | growth at 100 µM (A549): -19% | GI50 (HL-60(TB) [5]): 2.76 µM | TGI (HL-60(TB) [5]): > 100 µM | growth at 0.01 µM (SW-620 [6]): 96% | growth at 100 µM (PC-3 [7]): -4% | growth at 0.1 µM (OVCAR-8 [8]): 98% | growth at 10 µM (IGROV-1): 6% | growth at 0.1 µM (ACHN): 96% | growth at 100 µM (COLO 205): -70% | growth at 1 µM (SF-539): 35% | growth at 0.1 µM (SW-620 [9]): 95% | growth at 0.1 µM (MCF7): 94% | growth at 0.01 µM (UACC-257): 93% | growth at 0.1 µM (NCI-H23): 103% | growth at 100 µM (DU-145): -100% | growth at 10 µM (T47D): -13% | growth at 0.1 µM (PC-3 [10]): 95% | growth at 10 µM (UO-31 [11]): -52% | GI50 (SK-OV-3): 3.13 µM | TGI (SK-OV-3): 33.3 µM | growth at 0.1 µM (NCI-H460 [12]): 99% | growth at 100 µM (A498): -55% | growth at 0.1 µM (NCI-H522): 94% | growth at 100 µM (OVCAR-8 [13]): -15% | growth at 1 µM (NCI-H460 [14]): 36% | growth at 0.1 µM (SK-MEL-5): 96% | GI50 (UO-31 [15]): 1.5 µM | TGI (UO-31 [15]): 3.8 µM | growth at 0.1 µM (HCT-116 [16]): 88% | GI50 (HCC 2998): 1.74 µM | TGI (HCC 2998): 3.19 µM

COc1ccc(C(=O)/C=C/c2cc(-c3ccc4c(c3)OCO4)n[nH]2)cc1OC
growth at 1 µM (NCI-H226 [1]): 106% | growth at 1 µM (HL-60(TB) [2]): 89% | growth at 1 µM (BT-549): 95% | TGI (SNB-19): 15.2 µM | CC50 (SNB-19): 40.8 µM | growth at 10 µM (KM12): -2% | growth at 0.01 µM (HCT-116 [3]): 105% | growth at 1 µM (K562): 80% | growth at 0.1 µM (NCI-H226 [4]): 93% | growth at 100 µM (A549): -14% | LC50 (HL-60(TB) [5]): > 100 µM | TGI (HL-60(TB) [5]): 11.8 µM | growth at 0.01 µM (SW-620 [6]): 100% | growth at 100 µM (PC-3 [7]): -45% | growth at 0.1 µM (OVCAR-8 [8]): 98% | growth at 10 µM (IGROV-1): -4% | growth at 0.1 µM (ACHN): 100% | growth at 100 µM (COLO 205): -83% | growth at 1 µM (SF-539): 88% | growth at 0.1 µM (SW-620 [9]): 95% | growth at 0.1 µM (MCF7): 94% | growth at 0.01 µM (UACC-257): 91% | growth at 0.1 µM (NCI-H23): 89% | growth at 100 µM (DU-145): -97% | growth at 10 µM (T47D): 22% | growth at 0.1 µM (PC-3 [10]): 95% | LC50 (SK-OV-3): > 100 µM | TGI (SK-OV-3): 26.4 µM | growth at 0.1 µM (NCI-H460 [12]): 102% | growth at 100 µM (A498): -93% | growth at 0.1 µM (NCI-H522): 87% | growth at 100 µM (OVCAR-8 [13]): -65% | growth at 1 µM (NCI-H460 [14]): 87% | growth at 0.1 µM (SK-MEL-5): 97% | GI50 (UO-31 [15]): 2.32 µM | LC50 (UO-31 [15]): 34.5 µM | TGI (UO-31 [15]): 10.1 µM | growth at 0.1 µM (HCT-116 [16]): 95% | LC50 (HCC 2998): 48.1 µM | TGI (HCC 2998): 17.3 µM

COc1cc(C(=O)/C=C/c2cc(-c3cc(OC)c(OC)c(OC)c3)n[nH]2)cc(OC)c1OC
growth at 1 µM (NCI-H226 [1]): 86% | growth at 1 µM (HL-60(TB) [2]): 81% | growth at 1 µM (BT-549): 85% | TGI (SNB-19): 3.69 µM | CC50 (SNB-19): 8.2 µM | growth at 10 µM (KM12): -90% | growth at 0.01 µM (HCT-116 [3]): 97% | growth at 1 µM (K562): 94% | growth at 0.1 µM (NCI-H226 [4]): 93% | growth at 100 µM (A549): -66% | LC50 (HL-60(TB) [5]): > 100 µM | TGI (HL-60(TB) [5]): 5.52 µM | growth at 0.01 µM (SW-620 [6]): 96% | growth at 100 µM (PC-3 [7]): -94% | growth at 0.1 µM (OVCAR-8 [8]): 94% | growth at 10 µM (IGROV-1): 1% | growth at 0.1 µM (ACHN): 100% | growth at 100 µM (COLO 205): -100% | growth at 1 µM (SF-539): 66% | growth at 0.1 µM (SW-620 [9]): 97% | growth at 0.1 µM (MCF7): 95% | growth at 0.01 µM (UACC-257): 94% | growth at 0.1 µM (NCI-H23): 101% | growth at 10 µM (T47D): -82% | growth at 0.1 µM (PC-3 [10]): 92% | growth at 10 µM (UO-31 [11]): -95% | LC50 (SK-OV-3): 33.4 µM | TGI (SK-OV-3): 11.1 µM | growth at 0.1 µM (NCI-H460 [12]): 104% | growth at 100 µM (A498): -98% | growth at 0.1 µM (NCI-H522): 103% | growth at 100 µM (OVCAR-8 [13]): -99% | growth at 1 µM (NCI-H460 [14]): 89% | growth at 0.1 µM (SK-MEL-5): 95% | LC50 (UO-31 [15]): 5.16 µM | TGI (UO-31 [15]): 2.48 µM | growth at 0.1 µM (HCT-116 [16]): 104% | LC50 (HCC 2998): 6.31 µM | TGI (HCC 2998): 3.39 µM
